The values that follow come from US11472799B2, “Serine threonine kinase (AKT) degradation / disruption compounds and methods of use” (Icahn School of Medicine at Mount Sinai, priority 2018, dated 2022).

In the experiment the test system is AKT. Put plainly: Western blot of AKT protein levels and downstream signaling in BT474 cells. The settings on record: Western blot (FIGS. 1, 3, 4). In kind it is cell-based, human. On the procedure: PC-3, U87MG, HCC1143, MDA-MB-231, MDA-MB-468, BT474 and MCF-7 cell lines were purchased from ATCC. Cell lines were regularly tested in the lab for mycoplasma. All cells were cultured at 37° C. and 5% CO2. PC-3, U87MG, MDA-MB-231, MCF-7 and BT474 cells were cultured in 1×DMEM (Corning, 10-013-CV) with 10% fetal bovine serum (Atlanta Biologicals S11150) and 1× Penicillin/Streptomycin. HCC1143 cells were cultured in RPMI (Corning, 10-040-CV) medium with 10% fetal bovine serum (Atlanta Biologicals S11150) and 1× Penicillin/Streptomycin. Cells were split using 0.05% or 0.25% trypsin (Corning 25-051-Cl or 25-053-Cl, respectively) before they reached full confluence and media was changed every 3-4 days. Cells were treated with compounds individually at different concentrations for 24 hrs. Cells were treated with DMSO, VHL, or PML alone as controls.
Cells were lysed in 2× sample buffer (125 mM Tris-HCl at pH 6.8, 10% βME, 2% SDS, 20% glycerol, 0.05% Bromophenol Blue, 8 M urea). Protein lysates were loaded into 4-12% Bis-Tris gels and resolved by electrophoresis. Samples were then blotted on PVDF membrane (Millipore IPVH00010) using the wet transfer technique (Invitrogen). Membranes were blocked in 5% milk-TBST for 1 hour, washed in TBST for 10 min, and incubated in primary antibody in 5% milk-TBST or 5% BSA-TBST at 4° C. for 16 h. Membranes were rinsed (3×6 min) in TBST and incubated in horseradish peroxidase-conjugated secondary antibodies in 5% milk-TBST for 1 hour and rinsed again in TBST (3×6 min). Membranes were visualized using the chemiluminescence system (Thermo 34080, 37075) on autoradiography film (Denville E3018). Primary Antibodies: R-actin (Sigma A5316), p-AKT (Ser473 CST-9721), total AKT (CST-9272), p-S6 (Ser240/244, CST-5364), p-PRAS40 (Thr246, CST-2997). Secondary Antibodies: Mouse (Thermo 31432), Rabbit (Thermo 31460).
As to `NC1(C(=O)N[C@@H](CCN2CCN(C(=O)CCOCCOCCOCCOCCOCCOc3cccc4c3C(=O)N(C3CCC(=O)NC3=O)C4=O)CC2)c2ccc(Cl)cc2)CCN(c2ncnc3[nH]ccc23)CC1` (stereo partly drawn) [XF056-37, 4-amino-N-((1S)-1-(4-chlorophenyl)-3-(4-(1-((2-(2,6-dioxopiperidin-3-yl)-1,3-dioxoisoindolin-4-yl)oxy)-3,6,9,12,15-pentaoxaoctadecan-18-oyl)piperazin-1-yl)propyl)-1-(7H-pyrrolo[2,3-d]pyrimidin-4-yl)piperidine-4-carboxamide], the “suppression of AKT protein level and AKT activity” value (from here on “suppression”) is “effective in suppressing both AKT protein level and AKT activity”.

For `C[C@@H]1C[C@@H](O)c2ncnc(N3CCN(C(=O)[C@H](CNCCNC(=O)CCOCCOCCOCCNc4cccc5c4C(=O)N(C4CCC(=O)NC4=O)C5=O)c4ccc(Cl)cc4)CC3)c21` (stereo partly drawn) [XF048-2, N-(2-(((S)-2-(4-chlorophenyl)-3-(4-((5R,7R)-7-hydroxy-5-methyl-6,7-dihydro-5H-cyclopenta[d]pyrimidin-4-yl)piperazin-1-yl)-3-oxopropyl)amino)ethyl)-3-(2-(2-(2-((2-(2,6-dioxopiperidin-3-yl)-1,3-dioxoisoindolin-4-yl)amino)ethoxy)ethoxy)ethoxy)propanamide], the “suppression” value is “effective in suppressing both AKT protein level and AKT activity”.

Take `C[C@@H]1C[C@@H](O)c2ncnc(N3CCN(C(=O)[C@H](CNCCC(=O)NCCCCCCNc4cccc5c4C(=O)N(C4CCC(=O)NC4=O)C5=O)c4ccc(Cl)cc4)CC3)c21` (stereo partly drawn) [XF042-168, 3-(((S)-2-(4-chlorophenyl)-3-(4-((5R,7R)-7-hydroxy-5-methyl-6,7-dihydro-5H-cyclopenta[d]pyrimidin-4-yl)piperazin-1-yl)-3-oxopropyl)amino)-N-(6-((2-(2,6-dioxopiperidin-3-yl)-1,3-dioxoisoindolin-4-yl)amino)hexyl)propanamide]: the “suppression” value was “effective in suppressing both AKT protein level and AKT activity”.

`C[C@@H]1C[C@@H](O)c2ncnc(N3CCN(C(=O)[C@H](CNCCNC(=O)CCOCCOCCNc4cccc5c4C(=O)N(C4CCC(=O)NC4=O)C5=O)c4ccc(Cl)cc4)CC3)c21` (stereo partly drawn) [XF048-1, N-(2-(((N)-2-(4-chlorophenyl)-3-(4-((5R,7R)-7-hydroxy-5-methyl-6,7-dihydro-5H-cyclopenta[d]pyrimidin-4-yl)piperazin-1-yl)-3-oxopropyl)amino)ethyl)-3-(2-(2-((2-(2,6-dioxopiperidin-3-yl)-1,3-dioxoisoindolin-4-yl)amino)ethoxy)ethoxy) propanamide]: the “suppression” value is “effective in suppressing both AKT protein level and AKT activity”.

In the case of `C[C@@H]1C[C@@H](O)c2ncnc(N3CCN(C(=O)[C@H](CNCCC(=O)NCCCCCCCCCc4cccc5c4C(=O)N(C4CCC(=O)NC4=O)C5=O)c4ccc(Cl)cc4)CC3)c21` (stereo partly drawn) [XF056-93, 3-(((S)-2-(4-chlorophenyl)-3-(4-((5R,7R)-7-hydroxy-5-methyl-6,7-dihydro-5H-cyclopenta[d]pyrimidin-4-yl)piperazin-1-yl)-3-oxopropyl)amino)-N-(9-(2-(2,6-dioxopiperidin-3-yl)-1,3-dioxoisoindolin-4-yl)nonyl)propanamide], the “suppression” value is “effective in suppressing both AKT protein level and AKT activity”.

`NC1(C(=O)N[C@@H](CCN2CCN(C(=O)CCOCCOCCOCCOCCOCCOCCNc3cccc4c3C(=O)N(C3CCC(=O)NC3=O)C4=O)CC2)c2ccc(Cl)cc2)CCN(c2ncnc3[nH]ccc23)CC1` (stereo partly drawn) [XF056-33, 4-amino-N-((1S)-1-(4-chlorophenyl)-3-(4-(1-((2-(2,6-dioxopiperidin-3-yl)-1,3-dioxoisoindolin-4-yl)amino)-3,6,9,12,15,18-hexaoxahenicosan-21-oyl)piperazin-1-yl)propyl)-1-(7H-pyrrolo[2,3-d]pyrimidin-4-yl)piperidine-4-carboxamide]: the “suppression” value was “effective in suppressing both AKT protein level and AKT activity”.
